Experimental findings from paper PMC5848165 (Toxins, 2018) are described below.

This assay concerns WT Nav1.7, domain II voltage sensor. As to the kind of experiment: Voltage sensor trapping test on WT Nav1.7 (patch clamp pulse protocols). The format is cell-based, human. The conditions noted are these: 10 µM. How it is done:
It has been proven that scorpion β-toxins trapped the domain II S4 voltage sensor in the outward position. However, HWTX-IV inhibited sodium channels by trapping voltage sensor in a closed configuration [15]. We wondered whether JZTX-34 blocked sodium channels in a resting state or an outward position. The current traces were recorded by a 50 ms depolarizing pulse of −10 mV from a holding potential of −80 mV. At first, 10 µM JZTX-34 was added to cells and incubated for 5 min. Then, the currents were elicited by the protocol described before. […] To further confirm this, the same protocol described by Cestele et al. was used to assess whether JZTX-34 traps the domain II S4 voltage sensor of the WT Nav1.7 in a closed position. A 15 ms test pulse to 0 mV was applied from a holding potential of −80 mV and was followed by a 1 ms conditioning pulse to +50 mV. Then, a 15 ms test pulse to −65 mV was used to detect whether the currents were elicited.
Figure 5 JZTX-34 traps the domain II voltage sensor in closed configuration. (A) Nav1.7 current traces were elicited by a protocol as following. First, an inward sodium currents were elicited by a 50 ms depolarizing potential to 0 mV from a holding potential of −80 mV every 5 s. Second, 10 μM JZTX-34 were added to bath solution. Finally, the same pulse protocol was applied to elicit inward currents after a 5 min toxin treatment. (B) The current traces 0, 15 ms, 100 ms, and 5 min after toxin treatment are shown, which were elicited by a protocol as shown in C. (C) This pulse protocol was included three phases and applied every 5 s. […]
The HEK293T cells were maintained in standard culture conditions (5% CO2 and 37 °C). […] After culturing for 36–72 h, cells with obvious green fluorescence were selected for sodium currents recordings the internal solution for sodium currents recording that contained (in mM) 140 CsF, 5 NaCl, 10 HEPES, 3 Na2-ATP, and 10 EGTA. […]
Sodium currents were recorded from DRG, HEK293, and ND cells by the whole-cell patch-clamp technique at 25 °C. […]

The structures appear in SMILES notation. Residues, ends and D or L forms follow the SMILES beside them.

Consider `CC(C)C[C@@H]1NC(=O)[C@H](Cc2c[nH]c3ccccc23)NC(=O)[C@H](CCC(=O)O)NC(=O)[C@H](CCCNC(=N)N)NC(=O)[C@@H](NC(=O)[C@H](C)N)CSSC[C@@H]2NC(=O)[C@@H]3CSSC[C@@H](C(=O)N[C@H](C(=O)N[C@@H](Cc4c[nH]c5ccccc45)C(=O)N[C@@H](CC(=O)O)C(=O)N[C@@H](Cc4c[nH]c5ccccc45)C(=O)N[C@H](C(=O)N[C@H](C(=O)O)C(C)C)[C@@H](C)O)C(C)C)NC(=O)[C@H](Cc4c[nH]cn4)NC(=O)[C@H](Cc4ccc(O)cc4)NC(=O)[C@@H]4CCCN4C(=O)[C@H](Cc4c[nH]c5ccccc45)NC(=O)[C@H](CCCCN)NC(=O)[C@H](CCCCN)NC(=O)[C@H](CCCNC(=N)N)NC(=O)[C@H](CSSC[C@H](NC(=O)CNC(=O)CNC1=O)C(=O)N[C@@H](CO)C(=O)N[C@@H](CCCCN)C(=O)N[C@@H](CC(=O)O)C(=O)N[C@@H](C)C(=O)N[C@@H](CC(=O)O)C(=O)N3)NC(=O)[C@H](CCC(=O)O)NC(=O)[C@H](CC(C)C)NC(=O)[C@H](Cc1c[nH]cn1)NC(=O)[C@H](C)NC2=O` [JZTX-34, Jingzhaotoxin-34] (HELM PEPTIDE1{A.C.R.E.W.L.G.G.C.S.K.D.A.D.C.C.A.H.L.E.C.R.K.K.W.P.Y.H.C.V.W.D.W.T.V}$PEPTIDE1,PEPTIDE1,2:R3-16:R3|PEPTIDE1,PEPTIDE1,9:R3-21:R3|PEPTIDE1,PEPTIDE1,15:R3-29:R3$$$V2.0; N-terminus and C-terminus assumed), for which the “inhibition at first pulse after incubation at rest” value (5 min incubation, −10 mV (legend: 0 mV) from −80 mV) is recorded as “currents were significantly inhibited at the first pulse”. In addition, the “current amplitude at first test pulse (0 mV)” value (15 ms test pulse to 0 mV from −80 mV) is “greatly depressed in a time-dependent manner”. The “inward current at second test pulse (−65 mV)” value (after 1 ms conditioning pulse to +50 mV) is on record as “no inward current was observed”.
